Assay results as given in patent publication US11292821B2, “Peptides and combination of peptides for use in immunotherapy against lung cancer, including NSCLC, SCLC and other cancers” (Immatics Biotechnologies GmbH, priority 2017, dated 2022).

Tested on: HLA-A*24
Test: MHC binding assay (UV-ligand exchange, β2m ELISA)
Parameters: species or system human

Substance: 31 (QYQNVLTLW; listed as Homo sapiens) [compound 31]
- Peptide exchange (peptide exchange yield, MHC class I binding score): “++++” (>75% = ++++)

Substance: 382 (IYHSHHPTL; listed as Homo sapiens) [compound 382]
- Peptide exchange (peptide exchange yield, MHC class I binding score): “+++” (>50 = +++)

Substance: 24 (MYPDLSELLM; listed as Homo sapiens) [compound 24]
- Peptide exchange (peptide exchange yield, MHC class I binding score): “++++” (>75% = ++++)

Substance: 67 (RYPGKFYRV; listed as Homo sapiens) [compound 67]
- Peptide exchange (peptide exchange yield, MHC class I binding score): “++++” (>75% = ++++)

Substance: 48 (VFIDHPVHLKF; listed as Homo sapiens) [compound 48]
- Peptide exchange (peptide exchange yield, MHC class I binding score): “++++” (>75% = ++++)

Substance: 40 (QYEPPSAPSTTF; listed as Homo sapiens) [compound 40]
- Peptide exchange (peptide exchange yield, MHC class I binding score): “+++” (>50 = +++)

Substance: 47 (KYADYFLEV; listed as Homo sapiens) [compound 47]
- Peptide exchange (peptide exchange yield, MHC class I binding score): “++++” (>75% = ++++)

Substance: 58 (QFAAPLRGIYF; listed as Homo sapiens) [compound 58]
- Peptide exchange (peptide exchange yield, MHC class I binding score): “++++” (>75% = ++++)

Substance: 56 (VYMIEPLEL; listed as Homo sapiens) [compound 56]
- Peptide exchange (peptide exchange yield, MHC class I binding score): “++++” (>75% = ++++)

Substance: 33 (KSSVIASLLF; listed as Homo sapiens) [compound 33]
- Peptide exchange (peptide exchange yield, MHC class I binding score): “+++” (>50 = +++)

Substance: 39 (LIFMLANVF; listed as Homo sapiens) [compound 39]
- Peptide exchange (peptide exchange yield, MHC class I binding score): “+” (>10% = +)

Substance: 14 (SYSSCYSF; listed as Homo sapiens) [compound 14]
- Peptide exchange (peptide exchange yield, MHC class I binding score): “+++” (>50 = +++)

Substance: 55 (RWMDQRLVF; listed as Homo sapiens) [compound 55]
- Peptide exchange (peptide exchange yield, MHC class I binding score): “++++” (>75% = ++++)

Substance: 17 (YYADKKTFIVL; listed as Homo sapiens) [compound 17]
- Peptide exchange (peptide exchange yield, MHC class I binding score): “+++” (>50 = +++)

Substance: 46 (AFPVTSIFHTF; listed as Homo sapiens) [compound 46]
- Peptide exchange (peptide exchange yield, MHC class I binding score): “++++” (>75% = ++++)

Substance: 53 (KYITNLEDL; listed as Homo sapiens) [compound 53]
- Peptide exchange (peptide exchange yield, MHC class I binding score): “++++” (>75% = ++++)

Substance: 70 (PYTNYTFDF; listed as Homo sapiens) [compound 70]
- Peptide exchange (peptide exchange yield, MHC class I binding score): “++++” (>75% = ++++)

Substance: 19 (ILKEDPFLF; listed as Homo sapiens) [compound 19]
- Peptide exchange (peptide exchange yield, MHC class I binding score): “+” (>10% = +)

Substance: 75 (NYIYSISVF; listed as Homo sapiens) [compound 75]
- Peptide exchange (peptide exchange yield, MHC class I binding score): “++++” (>75% = ++++)

Substance: 381 (TYSKKHFRI; listed as Homo sapiens) [compound 381]
- Peptide exchange (peptide exchange yield, MHC class I binding score): “++++” (>75% = ++++)

Substance: 81 (LYPEGLRLL; listed as Homo sapiens) [compound 81]
- Peptide exchange (peptide exchange yield, MHC class I binding score): “++++” (>75% = ++++)

Substance: 12 (STIRGELFFF; listed as Homo sapiens) [compound 12]
- Peptide exchange (peptide exchange yield, MHC class I binding score): “+” (>10% = +)

Substance: 7 (VQQWSVAVF; listed as Homo sapiens) [compound 7]
- Peptide exchange (peptide exchange yield, MHC class I binding score): “+++” (>50 = +++)

Substance: 34 (MQPRMFFLF; listed as Homo sapiens) [compound 34]
- Peptide exchange (peptide exchange yield, MHC class I binding score): “++++” (>75% = ++++)

Substance: 68 (IYQQIIQTY; listed as Homo sapiens) [compound 68]
- Peptide exchange (peptide exchange yield, MHC class I binding score): “++++” (>75% = ++++)

Substance: 54 (LLIKLLQTF; listed as Homo sapiens) [compound 54]
- Peptide exchange (peptide exchange yield, MHC class I binding score): “+++” (>50 = +++)

Substance: 82 (RFLPSPVVI; listed as Homo sapiens) [compound 82]
- Peptide exchange (peptide exchange yield, MHC class I binding score): “++++” (>75% = ++++)

Substance: 26 (KTPTNYYLF; listed as Homo sapiens) [compound 26]
- Peptide exchange (peptide exchange yield, MHC class I binding score): “++++” (>75% = ++++)

Substance: 80 (YYSPLRDLL; listed as Homo sapiens) [compound 80]
- Peptide exchange (peptide exchange yield, MHC class I binding score): “++++” (>75% = ++++)

Substance: 45 (KYFVPPQLF; listed as Homo sapiens) [compound 45]
- Peptide exchange (peptide exchange yield, MHC class I binding score): “++++” (>75% = ++++)

Substance: 32 (SLPDLTPTF; listed as Homo sapiens) [compound 32]
- Peptide exchange (peptide exchange yield, MHC class I binding score): “++++” (>75% = ++++)

Substance: 43 (IQMDEPMAF; listed as Homo sapiens) [compound 43]
- Peptide exchange (peptide exchange yield, MHC class I binding score): “+” (>10% = +)

Substance: 18 (DYIGSVEKW; listed as Homo sapiens) [compound 18]
- Peptide exchange (peptide exchange yield, MHC class I binding score): “++++” (>75% = ++++)

Substance: 37 (QWPWQASLQF; listed as Homo sapiens) [compound 37]
- Peptide exchange (peptide exchange yield, MHC class I binding score): “++++” (>75% = ++++)

Substance: 378 (KFLGPAEHLTF; listed as Homo sapiens) [compound 378]
- Peptide exchange (peptide exchange yield, MHC class I binding score): “++++” (>75% = ++++)

Substance: 30 (QYLPGWTVLF; listed as Homo sapiens) [compound 30]
- Peptide exchange (peptide exchange yield, MHC class I binding score): “++++” (>75% = ++++)

Substance: 5 (RYMKKDYLI; listed as Homo sapiens) [compound 5]
- Peptide exchange (peptide exchange yield, MHC class I binding score): “++++” (>75% = ++++)

Substance: 49 (LYISEVRNI; listed as Homo sapiens) [compound 49]
- Peptide exchange (peptide exchange yield, MHC class I binding score): “++++” (>75% = ++++)

Substance: 376 (KYVKDFHKF; listed as Homo sapiens) [compound 376]
- Peptide exchange (peptide exchange yield, MHC class I binding score): “++++” (>75% = ++++)

Substance: 387 (RWLPQKNAAQF; listed as Homo sapiens) [compound 387]
- Peptide exchange (peptide exchange yield, MHC class I binding score): “+++” (>50 = +++)

Substance: 64 (NYAIFDEGHML; listed as Homo sapiens) [compound 64]
- Peptide exchange (peptide exchange yield, MHC class I binding score): “++++” (>75% = ++++)

Substance: 52 (KYMKIFHKF; listed as Homo sapiens) [compound 52]
- Peptide exchange (peptide exchange yield, MHC class I binding score): “++++” (>75% = ++++)

Substance: 42 (TLPNTIYRF; listed as Homo sapiens) [compound 42]
- Peptide exchange (peptide exchange yield, MHC class I binding score): “++++” (>75% = ++++)

Substance: 73 (SYIGLPLTL; listed as Homo sapiens) [compound 73]
- Peptide exchange (peptide exchange yield, MHC class I binding score): “+++” (>50 = +++)

Substance: 44 (AYLSAVGTF; listed as Homo sapiens) [compound 44]
- Peptide exchange (peptide exchange yield, MHC class I binding score): “++++” (>75% = ++++)

Substance: 28 (YYSIISHTL; listed as Homo sapiens) [compound 28]
- Peptide exchange (peptide exchange yield, MHC class I binding score): “++++” (>75% = ++++)

Substance: 385 (MYINEVERL; listed as Homo sapiens) [compound 385]
- Peptide exchange (peptide exchange yield, MHC class I binding score): “++++” (>75% = ++++)

Substance: 36 (KQMEDGHTLF; listed as Homo sapiens) [compound 36]
- Peptide exchange (peptide exchange yield, MHC class I binding score): “++” (>20% = ++)

Substance: 22 (TQPGDWTLF; listed as Homo sapiens) [compound 22]
- Peptide exchange (peptide exchange yield, MHC class I binding score): “++++” (>75% = ++++)

Substance: 25 (SYNGYVFYL; listed as Homo sapiens) [compound 25]
- Peptide exchange (peptide exchange yield, MHC class I binding score): “++++” (>75% = ++++)

Substance: 74 (VYDQYFITL; listed as Homo sapiens) [compound 74]
- Peptide exchange (peptide exchange yield, MHC class I binding score): “++++” (>75% = ++++)

Substance: 377 (VYVGAVNRI; listed as Homo sapiens) [compound 377]
- Peptide exchange (peptide exchange yield, MHC class I binding score): “++++” (>75% = ++++)

Substance: 63 (VMPSDSFFF; listed as Homo sapiens) [compound 63]
- Peptide exchange (peptide exchange yield, MHC class I binding score): “++++” (>75% = ++++)

Substance: 78 (TWFPKTPMLF; listed as Homo sapiens) [compound 78]
- Peptide exchange (peptide exchange yield, MHC class I binding score): “++++” (>75% = ++++)

Substance: 71 (SYMVLAPVF; listed as Homo sapiens) [compound 71]
- Peptide exchange (peptide exchange yield, MHC class I binding score): “++++” (>75% = ++++)

Substance: 69 (IMPEKFEFW; listed as Homo sapiens) [compound 69]
- Peptide exchange (peptide exchange yield, MHC class I binding score): “++++” (>75% = ++++)

Substance: 27 (NYTLYPITF; listed as Homo sapiens) [compound 27]
- Peptide exchange (peptide exchange yield, MHC class I binding score): “++++” (>75% = ++++)

Substance: 21 (SYEVRSTF; listed as Homo sapiens) [compound 21]
- Peptide exchange (peptide exchange yield, MHC class I binding score): “+++” (>50 = +++)
